Laboratory results as given in ChEMBL document CHEMBL1128879, “Design, synthesis, and structure-activity relationships of 2-substituted-2-amino-1,3-propanediols: Discovery of a novel immunosuppressant, FTY720” (Bioorg Med Chem Lett, 1995).

What was measured:
Mus musculus = species: Mus musculus; assay: In vitro ability to inhibit mouse allogenic mixed leukocyte response (MLR); type: functional
Rattus norvegicus [1] = assay: Compound was evaluated in vivo in rat skin allograft by intravenous (iv) administration; not toxic; type: functional
Rattus norvegicus [2] = assay: Compound was evaluated in vivo for the immunosuppressive activity following intravenous (iv) administration at a dose of 10 mg/Kg; type: functional
Rattus norvegicus [3] = assay: Compound was evaluated in vivo for the immunosuppressive activity following intraperitoneal (ip) administration at a dose of 0.1 mg/Kg; type: functional
Rattus norvegicus [4] = assay: Compound was evaluated in vivo for the immunosuppressive activity following intravenous (iv) administration at a dose of 0.1 mg/kg; type: functional
Rattus norvegicus [5] = assay: Compound was evaluated in vivo for the immunosuppressive activity following peroral (po) administration at a dose of 0.1 mg/Kg; type: functional
Rattus norvegicus [6] = assay: Compound was evaluated in vivo for the immunosuppressive activity following intraperitoneal (ip) administration at a dose of 1 mg/Kg; type: functional
Rattus norvegicus [7] = assay: Compound was evaluated in vivo for the immunosuppressive activity following peroral (po) administration at a dose of 3 mg/Kg; type: functional
Rattus norvegicus [8] = assay: Compound was evaluated in vivo for the immunosuppressive activity following peroral (po) administration at a dose of 30 mg/Kg; type: functional
Rattus norvegicus [9] = assay: Compound was evaluated in vivo for the immunosuppressive activity following intraperitoneal (ip) administration at a dose of 0.3 mg/Kg; type: functional
Rattus norvegicus [10] = assay: Compound was evaluated in vivo for the immunosuppressive activity following intraperitoneal (ip) administration at a dose of 3 mg/kg; type: functional
Rattus norvegicus [11] = assay: Compound was evaluated in vivo for the immunosuppressive activity following intravenous (iv) administration at a dose of 3 mg/Kg; type: functional
Rattus norvegicus [12] = assay: (§1) Compound was evaluated in vivo in rat skin allograft by intravenous (iv) administration; toxic; type: organism-based
Rattus norvegicus [13] = assay: as §1; type: functional
Rattus norvegicus [14] = assay: Compound was evaluated in vivo for the immunosuppressive activity following intraperitoneal (ip) administration at a dose of 3 mg/Kg; type: functional

SMILES: CCCCCCCCCc1ccc(CCC(N)(CO)CO)cc1
- IC50 (Mus musculus): 8.5 nM

SMILES: CCCCCCCCCCc1ccc(C(N)(CO)CO)cc1
- IC50 (Mus musculus): 13 nM

SMILES: CCc1ccc(CCCCCCCCC(N)(CO)CO)cc1
- IC50 (Mus musculus): 32 nM

SMILES: CCCCCCc1ccc(CCCCC(N)(CO)CO)cc1
- IC50 (Mus musculus): 19 nM

SMILES: CCCCc1ccc(CCCCCCC(N)(CO)CO)cc1
- IC50 (Mus musculus): 100 nM

SMILES: CCCCCCCCCc1ccc(CC(N)(CO)CO)cc1
- IC50 (Mus musculus): 70 nM

SMILES: NC(CO)(CO)CCCCCCCCCCc1ccccc1
- IC50 (Mus musculus): 54 nM

SMILES: CCCCCCCc1ccc(CCCC(N)(CO)CO)cc1
- IC50 (Mus musculus): 350 nM

SMILES: CCCCCCCCc1ccc(CCC(N)(CO)CO)cc1 [FINGOLIMOD]
- Dose (Rattus norvegicus [1]): 10 mg/kg
- MST (Rattus norvegicus [2]): 53.5 days
- MST (Rattus norvegicus [3]): 32 days
- MST (Rattus norvegicus [4]): 24.8 days
- MST (Rattus norvegicus [5]): 19.3 days
- MST (Rattus norvegicus [6]): 45 days
- MST (Rattus norvegicus [7]): 41 days
- MST (Rattus norvegicus [8]): 57.8 days
- MST (Rattus norvegicus [9]): 36 days
- MST (Rattus norvegicus [10]): 60 days
- MST (Rattus norvegicus [11]): 46.3 days

SMILES: CCCCCCCCCCCCCCCC(N)(CO)CO
- Dose (Rattus norvegicus [12]): 3 mg/kg

SMILES: CCCCCCCCCCCCCCC(N)(CO)CO
- MST (Rattus norvegicus [3]): 12 days
- MST (Rattus norvegicus [6]): 40 days
- Dose (Rattus norvegicus [13]): 10 mg/kg
- MST (Rattus norvegicus [14]): 45 days
- MST (Rattus norvegicus [9]): 28 days
